According to ChEMBL document CHEMBL1127274, “Evaluation of (2S,4S)/(2R,4R) and (2S,4R)/(2R,4S) 6,6-N,N-dimethyl-2-methyl-2-oxo-1,3-dioxa-4-hexadecyl-6,aza-2-phosphacyclooctane bromide as inhibitors for protein kinase C, carnitine octanoyltransferase, and carnitine palmitoyltransferase” (Bioorg Med Chem Lett, 1994):
pIC50: −log10 of the molar value.

How the values were obtained:
[1] = molecular target: T1, Peroxisomal carnitine O-octanoyltransferase (Homo sapiens, UniProt Q9UKG9); assay: Inhibitory potency against carnitine octanoyltransferase (COT); Range = 1300-4000 uM
T1 sequence (Q9UKG9 whole entry): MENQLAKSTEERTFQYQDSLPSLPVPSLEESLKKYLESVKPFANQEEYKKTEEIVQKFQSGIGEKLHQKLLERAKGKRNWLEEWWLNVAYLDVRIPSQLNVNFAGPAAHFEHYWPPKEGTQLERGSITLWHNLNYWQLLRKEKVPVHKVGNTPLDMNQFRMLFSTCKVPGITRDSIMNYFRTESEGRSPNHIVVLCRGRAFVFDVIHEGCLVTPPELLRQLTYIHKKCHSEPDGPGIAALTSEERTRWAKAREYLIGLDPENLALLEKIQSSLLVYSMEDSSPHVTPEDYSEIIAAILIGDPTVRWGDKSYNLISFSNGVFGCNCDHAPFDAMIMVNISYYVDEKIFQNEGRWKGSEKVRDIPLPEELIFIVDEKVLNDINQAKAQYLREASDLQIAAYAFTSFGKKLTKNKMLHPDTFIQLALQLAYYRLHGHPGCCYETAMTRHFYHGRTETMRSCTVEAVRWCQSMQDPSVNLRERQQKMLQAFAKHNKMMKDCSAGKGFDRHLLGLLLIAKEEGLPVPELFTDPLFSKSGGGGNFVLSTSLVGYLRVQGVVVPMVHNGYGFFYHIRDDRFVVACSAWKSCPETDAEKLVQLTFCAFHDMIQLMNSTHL

[2] = molecular target: T2, Carnitine O-palmitoyltransferase 2, mitochondrial (Homo sapiens, UniProt P23786); assay: Inhibitory potency against Carnitine Palmitoyltransferase (CPT-II); Range = 32-235 uM
T2 sequence (P23786 whole entry): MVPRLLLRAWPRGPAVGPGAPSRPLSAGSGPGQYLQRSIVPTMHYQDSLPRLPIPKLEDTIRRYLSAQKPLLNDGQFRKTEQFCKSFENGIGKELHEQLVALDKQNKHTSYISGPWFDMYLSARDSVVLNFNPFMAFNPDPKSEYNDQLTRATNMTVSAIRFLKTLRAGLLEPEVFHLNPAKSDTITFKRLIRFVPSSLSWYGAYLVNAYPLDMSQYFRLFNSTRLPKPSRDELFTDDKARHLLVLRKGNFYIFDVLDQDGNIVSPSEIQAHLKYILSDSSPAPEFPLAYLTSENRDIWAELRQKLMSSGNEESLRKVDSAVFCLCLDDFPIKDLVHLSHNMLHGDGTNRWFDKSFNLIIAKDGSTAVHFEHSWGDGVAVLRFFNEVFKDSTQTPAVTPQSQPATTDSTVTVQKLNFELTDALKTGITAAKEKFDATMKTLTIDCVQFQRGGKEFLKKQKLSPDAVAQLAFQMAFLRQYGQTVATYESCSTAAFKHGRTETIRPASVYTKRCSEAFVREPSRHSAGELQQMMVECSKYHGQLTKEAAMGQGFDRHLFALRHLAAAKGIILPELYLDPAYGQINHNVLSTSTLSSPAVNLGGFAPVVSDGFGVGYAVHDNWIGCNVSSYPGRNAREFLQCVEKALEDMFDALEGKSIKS

SMILES: CCCCCCCCCCCCCCCC[C@@]1(O)C[N+](C)(C)CCO1
- pIC50 [1]: 2.40
- pIC50 [2]: 3.63
